For 28 compounds, IC50 results are on record in patent US9815839B2, “N-(1-(substituted-phenyl)ethyl)-9H-purin-6-amines as PI3K inhibitors” (Incyte Corporation, priority 2010, dated 2017).

SMILES strings stand for the structures. Structures can show the parent of a compound that is named as a salt.

T1 sequence (O00329 whole entry, species assumed): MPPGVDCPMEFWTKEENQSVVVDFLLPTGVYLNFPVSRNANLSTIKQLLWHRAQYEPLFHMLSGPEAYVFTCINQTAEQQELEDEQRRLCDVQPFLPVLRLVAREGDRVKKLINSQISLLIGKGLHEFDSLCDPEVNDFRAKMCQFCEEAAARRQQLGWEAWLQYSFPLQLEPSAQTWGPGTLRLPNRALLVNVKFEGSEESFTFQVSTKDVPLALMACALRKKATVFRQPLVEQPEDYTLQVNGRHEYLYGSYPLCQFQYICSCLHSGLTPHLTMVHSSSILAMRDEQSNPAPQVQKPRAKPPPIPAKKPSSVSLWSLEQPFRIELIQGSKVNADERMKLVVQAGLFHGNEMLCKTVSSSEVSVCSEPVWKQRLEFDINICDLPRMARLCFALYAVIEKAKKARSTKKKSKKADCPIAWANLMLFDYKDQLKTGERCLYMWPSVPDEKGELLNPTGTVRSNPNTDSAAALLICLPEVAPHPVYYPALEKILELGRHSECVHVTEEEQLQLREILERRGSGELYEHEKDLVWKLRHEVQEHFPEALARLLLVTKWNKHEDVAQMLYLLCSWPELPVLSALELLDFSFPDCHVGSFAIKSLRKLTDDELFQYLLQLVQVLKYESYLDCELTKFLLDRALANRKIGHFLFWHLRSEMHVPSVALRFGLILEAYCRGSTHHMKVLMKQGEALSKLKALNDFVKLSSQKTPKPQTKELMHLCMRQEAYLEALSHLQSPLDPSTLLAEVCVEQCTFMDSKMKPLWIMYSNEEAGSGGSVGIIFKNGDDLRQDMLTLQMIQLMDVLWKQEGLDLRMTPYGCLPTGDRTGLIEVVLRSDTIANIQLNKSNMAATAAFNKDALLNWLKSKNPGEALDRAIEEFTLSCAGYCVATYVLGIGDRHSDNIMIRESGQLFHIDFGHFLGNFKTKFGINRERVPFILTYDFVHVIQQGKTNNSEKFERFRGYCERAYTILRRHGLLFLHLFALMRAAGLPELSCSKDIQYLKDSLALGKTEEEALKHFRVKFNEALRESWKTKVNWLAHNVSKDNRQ
T1 sequence (P27986 whole entry partner, species assumed): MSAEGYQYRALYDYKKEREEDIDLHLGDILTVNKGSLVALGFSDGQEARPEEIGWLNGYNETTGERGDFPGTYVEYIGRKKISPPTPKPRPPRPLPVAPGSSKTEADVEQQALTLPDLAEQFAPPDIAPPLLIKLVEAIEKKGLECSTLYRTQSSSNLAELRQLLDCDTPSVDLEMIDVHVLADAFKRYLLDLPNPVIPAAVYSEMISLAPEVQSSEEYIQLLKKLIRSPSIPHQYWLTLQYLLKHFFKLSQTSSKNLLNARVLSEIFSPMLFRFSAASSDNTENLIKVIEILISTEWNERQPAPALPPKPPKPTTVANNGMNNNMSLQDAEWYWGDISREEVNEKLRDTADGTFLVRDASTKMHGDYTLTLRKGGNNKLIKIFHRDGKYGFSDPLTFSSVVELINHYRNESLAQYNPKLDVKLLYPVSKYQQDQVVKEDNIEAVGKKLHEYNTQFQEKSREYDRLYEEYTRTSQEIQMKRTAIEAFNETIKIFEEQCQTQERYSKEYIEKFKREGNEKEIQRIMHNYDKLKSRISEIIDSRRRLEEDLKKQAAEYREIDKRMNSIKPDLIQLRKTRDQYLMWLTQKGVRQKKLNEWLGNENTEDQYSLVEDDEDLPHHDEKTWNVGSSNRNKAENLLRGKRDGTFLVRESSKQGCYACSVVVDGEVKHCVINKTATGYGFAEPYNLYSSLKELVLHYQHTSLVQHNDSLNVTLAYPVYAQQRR

The experiment addresses T1, PI3Kδ (p110δ/p85α) (Homo sapiens, UniProt O00329).
T1 construct: purchased Millipore (Bedford, Mass.)
Nature of the experiment: PI3Kδ scintillation proximity assay. Particulars: 20 μM ATP, 4 nM PI3Kδ. It counts as biochemical. From the text: Example A: PI3Kδ Scintillation Proximity Assay
Materials: [γ-^33P]ATP (10 mCi/mL) was purchased from Perkin-Elmer (Waltham, Mass.). Lipid kinase substrate, D-myo-Phosphatidylinositol 4,5-bisphosphate (PtdIns(4,5)P2)D (+)-sn-1,2-di-O-octanoylglyceryl, 3-O-phospho linked (PIP2), CAS 204858-53-7, was purchased from Echelon Biosciences (Salt Lake City, Utah). PI3Kδ (p110δ/p85α) was purchased from Millipore (Bedford, Mass.). ATP, MgCl2, DTT, EDTA, MOPS and CHAPS were purchased from Sigma-Aldrich (St. Louis, Mo.). Wheat Germ Agglutinin (WGA) YSi SPA Scintillation Beads was purchased from GE healthcare life sciences (Piscataway, N.J.).
The kinase reaction was conducted in polystyrene 384-well matrix white plate from Thermo Fisher Scientific in a final volume of 25 μL. Inhibitors were first diluted serially in DMSO and added to the plate wells before the addition of other reaction components. The final concentration of DMSO in the assay was 0.5%. The PI3K assays were carried out at room temperature in 20 mM MOPS, pH 6.7, 10 mM MgCl2, 5 mM DTT and CHAPS 0.03%. Reactions were initiated by the addition of ATP, the final reaction mixture consisted of 20 μM PIP2,20 μM ATP, 0.2 μCi [γ-^33P] ATP, 4 nM PI3Kδ. Reactions were incubated for 210 minutes and terminated by the addition of 40 μL SPA beads suspended in quench buffer: 150 mM potassium phosphate pH 8.0, 20% glycerol. 25 mM EDTA, 400 µM ATP. The final concentration of SPA beads is 1.0 mg/mL. After the plate sealing, plates were shaken overnight at room temperature and centrifuged at 1800 rpm for 10 minutes, the radioactivity of the product was determined by scintillation counting on Topcount (Perkin-Elmer). IC50 determination was performed by fitting the curve of percent control activity versus the log of the inhibitor concentration using the GraphPad Prism 3.0 software.
What is called IC50 is the concentration that gives 50% inhibition. Regarding `Cc1c(Cl)cc(C(C)Nc2ncnc3[nH]cnc23)c(OCCN2CCOCC2)c1-c1ccnn1C` (stereo not shown) [Example 152, N-{1-[5-chloro-4-methyl-3-(1-methyl-1H-pyrazol-5-yl)-2-(2-morpholin-4-ylethoxy)-phenyl]-ethyl}-9H-purin-6-amine], the concentration for half-maximal inhibition (IC50) was below 50 nM.

Compound `COc1ccc(-c2c(C)c(Cl)cc(C(C)Nc3ncnc4[nH]cnc34)c2OCCN2CCOCC2)cc1OC` (stereo not shown) [Example 153, N-{1-[5-chloro-3′,4′-dimethoxy-6-methyl-2-(2-mor-pholin-4-ylethoxy)-biphenyl-3-yl]ethyl}-9H-purin-6-amine] yielded an IC50 below 50 nM. Under `CNC(=O)c1ccc(-c2c(C)c(Cl)cc(C(C)Nc3ncnc4[nH]cnc34)c2OCCN2CCOCC2)cc1Cl` (stereo not shown) [Example 154] stands below 50 nM; under `Cc1c(Cl)cc(C(C)Nc2ncnc3[nH]cnc23)c(OCCN2CCOCC2)c1-c1cncc(C(=O)N2CCOCC2)c1` (stereo not shown) [Example 155, N-{1-[5-chloro-4-methyl-3-[5-(morpholin-4-ylcarbonyl)-pyridin-3-yl]-2-(2-morpholin-4-ylethoxy)-phenyl]-ethyl}-9H-purin-6-amine], below 50 nM. Under `Cc1c(Cl)cc(C(C)Nc2ncnc3[nH]cnc23)c(OCCN2CCOCC2)c1-c1cncc(S(C)(=O)=O)c1` (stereo not shown) [Example 156, N-{1-[5-chloro-4-methyl-3-[5-(methyl-sulfonyl)-pyridin-3-yl]-2-(2-morpholin-4-ylethoxy)-phenyl]-ethyl}-9H-purin-6-amine] stands below 50 nM.

`COc1cncc(-c2c(C)c(Cl)cc(C(C)Nc3ncnc4[nH]cnc34)c2OCCN2CCOCC2)c1` (stereo not shown) [Example 157, N-{1-[5-chloro-3-(5-methoxy-pyridin-3-yl)-4-methyl-2-(2-mor-pholin-4-ylethoxy)-phenyl]-ethyl}-9H-purin-6-amine]: the half-inhibitory concentration (IC50) is below 50 nM. As to `CC(=O)Nc1ccc(-c2c(C)c(Cl)cc(C(C)Nc3ncnc4[nH]cnc34)c2OCCN2CCOCC2)cn1` (stereo not shown) [Example 158, N-(5-{3-chloro-2-methyl-6-(2-morpholin-4-ylethoxy)-5-[1-(9H-purin-6-yl-amino)ethyl]-phenyl}-pyridin-2-yl)acetamide], the IC50 was below 50 nM. With `Cc1c(Cl)cc(C(C)Nc2ncnc3[nH]cnc23)c(OCCN2CCOCC2)c1-c1cc(F)cc(C(N)=O)c1` (stereo not shown) [Example 159, 3′-chloro-5-fluoro-2′-methyl-6′-(2-morpholin-4-ylethoxy)-5′-[1-(9H-purin-6-yl-amino)ethyl]-biphenyl-3-carboxamide] the figure was below 50 nM; with `COc1ncc(-c2c(C)c(Cl)cc(C(C)Nc3ncnc4[nH]cnc34)c2OCCN2CCOCC2)cc1F` (stereo not shown) [Example 160, N-{1-[5-chloro-3-(5-fluoro-6-methoxy-pyridin-3-yl)-4-methyl-2-(2-mor-pholin-4-ylethoxy)-phenyl]-ethyl}-9H-purin-6-amine], below 50 nM; with `COc1ncc(-c2c(C)c(Cl)cc(C(C)Nc3ncnc4[nH]cnc34)c2OCCN2CCOCC2)cn1` (stereo not shown) [Example 161, N-{1-[5-chloro-3-(2-methoxy-pyrimidin-5-yl)-4-methyl-2-(2-morpholin-4-yl-ethoxy)-phenyl]-ethyl}-9H-purin-6-amine], below 50 nM. With `Cc1c(Cl)cc(C(C)Nc2ncnc3[nH]cnc23)c(OCCN2CCOCC2)c1-c1cncc(F)c1` (stereo not shown) [Example 162, N-{1-[5-chloro-3-(5-fluoro-pyridin-3-yl)-4-methyl-2-(2-mor-pholin-4-ylethoxy)-phenyl]-ethyl}-9H-purin-6-amine] the figure was below 50 nM; with `COc1c(C(C)Nc2ncnc3[nH]cnc23)cc(Cl)c(C)c1-c1ccnnc1` (stereo not shown) [Example 163, N-[1-(5-Chloro-2-methoxy-4-methyl-3-pyridazin-4-ylphenyl)ethyl]-9H-purin-6-amine bis(trifluoroacetate)], below 50 nM; with `COc1c(C(C)Nc2ncnc3[nH]cnc23)cc(Cl)c(C)c1-c1cscn1` (stereo not shown) [Example 164, N-{1-[5-Chloro-2-methoxy-4-methyl-3-(1,3-thiazol-4-yl)phenyl]ethyl}-9H-purin-6-amine trifluoroacetate], below 50 nM. With `COc1c(C(C)Nc2ncnc3[nH]cnc23)cc(Cl)c(C)c1C1CNC1` (stereo not shown) [Example 165, N-[1-(3-azetidin-3-yl-5-chloro-2-methoxy-4-methylphenyl)ethyl]-9H-purin-6-amine bis(trifluoroacetate)] the figure was below 50 nM. `COC(=O)N1CC(c2c(C)c(Cl)cc(C(C)Nc3ncnc4[nH]cnc34)c2OC)C1` (stereo not shown) [Example 167, Methyl 3-{3-chloro-6-methoxy-2-methyl-5-[1-(9H-purin-6-ylamino)ethyl]phenyl}azetidine-1-carboxylate trifluoroacetate] yielded an IC50 below 50 nM.

`CNC(=O)N1CC(c2c(C)c(Cl)cc(C(C)Nc3ncnc4[nH]cnc34)c2OC)C1` (stereo not shown) [Example 168, 3-{3-Chloro-6-methoxy-2-methyl-5-[1-(9H-purin-6-ylamino)ethyl]phenyl}-N-methylazetidine-1-carboxamide trifluoroacetate] had an IC50 below 50 nM. Under `COc1c(C(C)Nc2ncnc3[nH]cnc23)cc(Cl)c(C)c1C1CN(S(C)(=O)=O)C1` (stereo not shown) [Example 169, N-(1-{5-Chloro-2-methoxy-4-methyl-3-[1-(methylsulfonyl)azetidin-3-yl]phenyl}ethyl)-9H-purin-6-amine trifluoroacetate] stands below 50 nM; under `COc1c(C(C)Nc2ncnc3[nH]cnc23)cc(Cl)c(C)c1C1CN(C)C1` (stereo not shown) [Example 171, N-{1-[5-Chloro-2-methoxy-4-methyl-3-(1-methylazetidin-3-yl)phenyl]ethyl}-9H-purin-6-amine bis(trifluoroacetate)], below 50 nM. `COc1c(C(C)Nc2ncnc3[nH]cnc23)cc(Cl)c(F)c1C1CN(C(C)C)C1` (stereo not shown) [Example 172, N-{1-[5-Chloro-4-fluoro-3-(1-isopropylazetidin-3-yl)-2-methoxyphenyl]ethyl}-9H-purin-6-amine bis(trifluoroacetate)]: the IC50 is below 50 nM.

Take `CCOc1c(C(C)Nc2ncnc3[nH]cnc23)cc(Cl)c(C)c1C1CN(C)C1` (stereo not shown) [Example 173, N-{1-[5-chloro-2-ethoxy-4-methyl-3-(1-methylazetidin-3-yl)phenyl]ethyl}-9H-purin-6-amine]: the IC50 was below 50 nM. For `CNC(=O)c1cc(-c2c(C)c(Cl)cc(C(C)Nc3ncnc4[nH]cnc34)c2OC)cn1C` (stereo not shown) [Example 175, 4-{3-Chloro-6-methoxy-2-methyl-5-[1-(9H-purin-6-ylamino)ethyl]phenyl}-N,1-dimethyl-1H-pyrrole-2-carboxamide], the IC50 was below 50 nM. Under `CCC(Nc1ncnc2[nH]cnc12)c1cc(Cl)c(C)c(-c2cncc(F)c2)c1OC` (stereo not shown) [Example 181, N-{1-[5-chloro-3-(5-fluoropyridin-3-yl)-2-methoxy-4-methylphenyl]propyl}-9H-purin-6-amine bis(2,2,2-trifluoroacetate)] stands below 50 nM.

`CCC(Nc1ncnc2[nH]cnc12)c1cc(Cl)c(C)c(-c2cncc(S(C)(=O)=O)c2)c1OC` (stereo not shown) [Example 182, N-(1-{5-chloro-2-methoxy-4-methyl-3-[5-(methylsulfonyl)pyridin-3-yl]phenyl}propyl)-9H-purin-6-amine bis(2,2,2-trifluoroacetate)] showed an IC50 below 50 nM. `COc1c(C(C)Nc2ncnc3[nH]cnc23)cc(Cl)c(C)c1-c1ccc(CO)nc1` (stereo not shown) [Example 183, (5-{3-chloro-6-methoxy-2-methyl-5-[1-(9H-purin-6-ylamino)ethyl]phenyl}pyridin-2-yl)methanol bis(2,2,2-trifluoroacetate)] came in with an IC50 below 50 nM.

`COc1c(C(C)Nc2ncnc3[nH]cnc23)cc(Cl)c(C)c1-c1ccc(C(C)(C)O)nc1` (stereo not shown) [Example 184, 2-(5-{3-chloro-6-methoxy-2-methyl-5-[1-(9H-purin-6-ylamino)ethyl]phenyl}pyridin-2-yl)propan-2-ol bis(2,2,2-trifluoroacetate)] yielded an IC50 below 50 nM. With `COc1c(C(C)Nc2ncnc3[nH]cnc23)cc(Cl)c(C)c1-c1ccc(C(C)(C)OC)nc1` (stereo not shown) [Example 185, N-(1-{5-chloro-2-methoxy-3-[6-(1-methoxy-1-methylethyl)pyridin-3-yl]-4-methylphenyl}ethyl)-9H-purin-6-amine bis(2,2,2-trifluoroacetate)] the figure was below 50 nM; with `CCOc1c(C(C)Nc2ncnc3[nH]cnc23)cc(C)c(C#N)c1-c1cncc(S(C)(=O)=O)c1` (stereo not shown) [Example 186, 3-ethoxy-6-methyl-2-[5-(methylsulfonyl)pyridin-3-yl]-4-[1-(9H-purin-6-ylamino)ethyl]benzonitrile bis(2,2,2-trifluoroacetate)], below 50 nM. Under `COc1c(C(C)Nc2ncnc3[nH]cnc23)cc(Cl)c(F)c1CN1CCOCC1` (stereo not shown) [Example 188, N-{1-[5-Chloro-4-fluoro-2-methoxy-3-(morpholin-4-ylmethyl)phenyl]ethyl}-9H-purin-6-amine] stands below 50 nM.
